Laboratory results taken from the NIST ThermoML archive (doi:10.1021/je700428f).
± gives the expanded uncertainty stated by the source.

Experiments:
[1] = xn = mol fraction of the nth substance listed; conditions: 101 kPa, Liquid
[2] = 101 kPa, Liquid; for viscosity: Capillary tube (Ostwald / Ubbelohde) method

COC(C)(C)C [2-methoxy-2-methylpropane] + CCCCCCCCC
mass density ([1]; 273.15 K, x1 = 1): 761.34 ± 0.5 kg/m3
mass density ([1]; 278.15 K, x1 = 1): 756.14 ± 0.51 kg/m3
mass density ([1]; 283.15 K, x1 = 1): 751.02 ± 0.51 kg/m3
mass density ([1]; 288.15 K, x1 = 1): 745.85 ± 0.52 kg/m3
mass density ([1]; 293.15 K, x1 = 1): 740.65 ± 0.53 kg/m3
mass density ([1]; 298.15 K, x1 = 1): 735.4 ± 0.54 kg/m3
mass density ([1]; 303.15 K, x1 = 1): 730.1 ± 0.55 kg/m3
mass density ([1]; 308.15 K, x1 = 1): 724.82 ± 0.56 kg/m3
mass density ([1]; 313.15 K, x1 = 1): 719.42 ± 0.56 kg/m3
mass density ([1]; 318.15 K, x1 = 1): 713.96 ± 0.57 kg/m3

CCCCCCCCCC [decane]
mass density ([2]; 273.15 K): 745.374 ± 0.54 kg/m3
mass density ([2]; 278.15 K): 741.257 ± 0.55 kg/m3
mass density ([2]; 283.15 K): 737.502 ± 0.55 kg/m3
mass density ([2]; 288.15 K): 733.733 ± 0.56 kg/m3
mass density ([2]; 293.15 K): 729.958 ± 0.56 kg/m3
mass density ([2]; 298.15 K): 726.174 ± 0.57 kg/m3
mass density ([2]; 303.15 K): 722.377 ± 0.57 kg/m3
mass density ([2]; 308.15 K): 718.573 ± 0.58 kg/m3
mass density ([2]; 313.15 K): 714.753 ± 0.59 kg/m3
mass density ([2]; 318.15 K): 710.92 ± 0.59 kg/m3
mass density ([2]; 323.15 K): 707.074 ± 0.6 kg/m3
mass density ([2]; 328.15 K): 703.213 ± 0.6 kg/m3
mass density ([2]; 333.15 K): 699.334 ± 0.61 kg/m3
mass density ([2]; 338.15 K): 695.439 ± 0.62 kg/m3
mass density ([2]; 343.15 K): 691.522 ± 0.62 kg/m3
mass density ([2]; 348.15 K): 687.587 ± 0.63 kg/m3
mass density ([2]; 353.15 K): 683.631 ± 0.64 kg/m3
mass density ([2]; 358.15 K): 679.651 ± 0.64 kg/m3
mass density ([2]; 363.15 K): 675.648 ± 0.65 kg/m3

CCCCCCCCC [nonane]
mass density ([2]; 273.15 K): 733.184 ± 0.57 kg/m3
viscosity ([2]; 273.15 K): 0.972 ± 0.01 mPa·s
mass density ([2]; 278.15 K): 729.335 ± 0.58 kg/m3
viscosity ([2]; 278.15 K): 0.896 ± 0.01 mPa·s
mass density ([2]; 283.15 K): 725.473 ± 0.59 kg/m3
viscosity ([2]; 283.15 K): 0.828 ± 0.01 mPa·s
mass density ([2]; 288.15 K): 721.603 ± 0.59 kg/m3
viscosity ([2]; 288.15 K): 0.768 ± 0.009 mPa·s
mass density ([2]; 293.15 K): 717.725 ± 0.6 kg/m3
viscosity ([2]; 293.15 K): 0.716 ± 0.009 mPa·s
mass density ([2]; 298.15 K): 713.834 ± 0.6 kg/m3
viscosity ([2]; 298.15 K): 0.669 ± 0.009 mPa·s
mass density ([2]; 303.15 K): 709.929 ± 0.61 kg/m3
viscosity ([2]; 303.15 K): 0.628 ± 0.009 mPa·s
mass density ([2]; 308.15 K): 706.011 ± 0.61 kg/m3
viscosity ([2]; 308.15 K): 0.59 ± 0.009 mPa·s
mass density ([2]; 313.15 K): 702.076 ± 0.62 kg/m3
viscosity ([2]; 313.15 K): 0.555 ± 0.009 mPa·s
mass density ([2]; 318.15 K): 698.124 ± 0.63 kg/m3
viscosity ([2]; 318.15 K): 0.522 ± 0.009 mPa·s
mass density ([2]; 323.15 K): 694.151 ± 0.63 kg/m3
viscosity ([2]; 323.15 K): 0.493 ± 0.009 mPa·s
mass density ([2]; 328.15 K): 690.165 ± 0.64 kg/m3
viscosity ([2]; 328.15 K): 0.466 ± 0.009 mPa·s
mass density ([2]; 333.15 K): 686.154 ± 0.64 kg/m3
viscosity ([2]; 333.15 K): 0.442 ± 0.009 mPa·s
mass density ([2]; 338.15 K): 682.116 ± 0.65 kg/m3
viscosity ([2]; 338.15 K): 0.42 ± 0.009 mPa·s
mass density ([2]; 343.15 K): 678.06 ± 0.66 kg/m3
viscosity ([2]; 343.15 K): 0.399 ± 0.009 mPa·s
mass density ([2]; 348.15 K): 673.979 ± 0.66 kg/m3
viscosity ([2]; 348.15 K): 0.38 ± 0.008 mPa·s
mass density ([2]; 353.15 K): 669.872 ± 0.67 kg/m3
viscosity ([2]; 353.15 K): 0.362 ± 0.008 mPa·s
mass density ([2]; 358.15 K): 665.73 ± 0.68 kg/m3
viscosity ([2]; 358.15 K): 0.346 ± 0.008 mPa·s
mass density ([2]; 363.15 K): 661.557 ± 0.68 kg/m3

CCCCCCCCCC [decane] + COC(C)(C)C
mass density ([1]; 273.15 K, x2 = 0): 745.374 ± 0.54 kg/m3
mass density ([1]; 278.15 K, x2 = 0): 741.257 ± 0.55 kg/m3
mass density ([1]; 283.15 K, x2 = 0): 737.502 ± 0.55 kg/m3
mass density ([1]; 288.15 K, x2 = 0): 733.733 ± 0.56 kg/m3
mass density ([1]; 293.15 K, x2 = 0): 729.958 ± 0.56 kg/m3
mass density ([1]; 298.15 K, x2 = 0): 726.174 ± 0.57 kg/m3
mass density ([1]; 303.15 K, x2 = 0): 722.377 ± 0.57 kg/m3
mass density ([1]; 308.15 K, x2 = 0): 718.573 ± 0.58 kg/m3
mass density ([1]; 313.15 K, x2 = 0): 714.753 ± 0.59 kg/m3
mass density ([1]; 318.15 K, x2 = 0): 710.92 ± 0.59 kg/m3
mass density ([1]; 323.15 K, x2 = 0): 707.074 ± 0.6 kg/m3
mass density ([1]; 328.15 K, x2 = 0): 703.213 ± 0.6 kg/m3
mass density ([1]; 333.15 K, x2 = 0): 699.334 ± 0.61 kg/m3
mass density ([1]; 338.15 K, x2 = 0): 695.439 ± 0.62 kg/m3
mass density ([1]; 343.15 K, x2 = 0): 691.522 ± 0.62 kg/m3
mass density ([1]; 348.15 K, x2 = 0): 687.587 ± 0.63 kg/m3
mass density ([1]; 353.15 K, x2 = 0): 683.631 ± 0.64 kg/m3
mass density ([1]; 358.15 K, x2 = 0): 679.651 ± 0.64 kg/m3
mass density ([1]; 363.15 K, x2 = 0): 675.648 ± 0.65 kg/m3

COC(C)(C)C [2-methoxy-2-methylpropane]
mass density ([2]; 273.15 K): 761.34 ± 0.5 kg/m3
mass density ([2]; 278.15 K): 756.14 ± 0.51 kg/m3
mass density ([2]; 283.15 K): 751.02 ± 0.51 kg/m3
mass density ([2]; 288.15 K): 745.85 ± 0.52 kg/m3
mass density ([2]; 293.15 K): 740.65 ± 0.53 kg/m3
mass density ([2]; 298.15 K): 735.4 ± 0.54 kg/m3
mass density ([2]; 303.15 K): 730.1 ± 0.55 kg/m3
mass density ([2]; 308.15 K): 724.82 ± 0.56 kg/m3
mass density ([2]; 313.15 K): 719.42 ± 0.56 kg/m3
mass density ([2]; 318.15 K): 713.96 ± 0.57 kg/m3
